Assay results taken from patent US12527886B2, “Radiopharmaceuticals and composition for thrombus imaging” (THE ASAN FOUNDATION, priority 2020, dated 2026).

What was measured:
[1] = Stability of Tc-99m labeled compound by radioTLC; type: physicochemical; conditions: for Eluent A / Eluent B: in % (unit assumed)
Procedure: (§1) After 2.0 mg of GP-104 was dissolved in 1.8 mL of water for injection and 0.2 mL of ethanol, the resulting solution was allowed to stand with a pH of about 5 at room temperature for 10 minutes when 20 μL of SnCl2 (15 mg/mL) and 2 mL of Tc-99m were added thereto, and the reaction was terminated by adjusting the pH to 7 using a NaOH solution. Stability up to 4 hours was confirmed by radioTLC under conditions of pH 5 and pH 7, respectively, and the results are summarized in the following Table 1. (TLC analysis conditions: iTLC was used, Eluent A: methyl ethyl ketone 100%, Eluent B: pyridine:acetic acid:purified water=3:5:15, and purity calculation: Eluent A−Eluent B)
as §1, with “ethanol, pH was adjusted to about 5 and” for “ethanol,”, “stand” for “stand with a pH of about 5”, “(15 mg/mL), 20 μL of cysteine (10” for “(15”, “Table 2.” for “Table 1.”
(§2) After 2.0 mg of GP-105 was dissolved in 1.8 mL of water for injection and 0.2 mL of ethanol, the pH was adjusted to about 5 and the resulting solution was allowed to stand at room temperature for 10 minutes when 20 μL of SnCl2 (15 mg/mL) and 2 mL of Tc-99m were added thereto, and the reaction was terminated by adjusting the pH to 7 using a NaOH solution. Stability until 4 hours under conditions of pH 5 and pH 7 was each confirmed by radioTLC. (TLC analysis conditions: iTLC was used, Eluent A: methyl ethyl ketone 100%, Eluent B: pyridine:acetic acid:purified water=3:5:15, and purity calculation: Eluent A−Eluent B)
as §2, with “ethanol,” for “ethanol, the”, “(15 mg/mL), 20 μL of cysteine (10” for “(15”

[2] = target: T1, glycoprotein IIb/IIIa (Rattus norvegicus, UniProt A0A8I6GGN2+Q8R2H2); test: Glycoprotein IIb/IIIa specific uptake in thrombotic disease model, gamma counter / microSPECT; type: in vivo, rats
T1 construct: a disease model in which a thrombus was formed with glycoprotein IIb/IIIa overexpressed; from tissue; host or cells: in vivo rat carotid artery thrombus (ferric chloride model)
Description: After 6-week-old rats were anesthetized to make a thrombotic disease model, the carotid artery was secured by opening the skin on the carotid artery side. Then, a filter paper soaked with a 5% ferric chloride solution was exposed on the artery, and then washed three times or more with physiological saline, and the incised skin was sutured again to make a model. […]

[3] = Ex 4-1, no cysteine, pH 5, 0 hour
[4] = Ex 4-1, no cysteine, pH 5, 0.5 hours
[5] = Ex 4-1, no cysteine, pH 5, 1.0 hour
[6] = Ex 4-1, no cysteine, pH 5, 1.5 hours
[7] = Ex 4-1, no cysteine, pH 5, 2.0 hours
[8] = Ex 4-1, no cysteine, pH 5, 3.0 hours
[9] = Ex 4-1, no cysteine, pH 5, 4.0 hours
[10] = Ex 4-1, no cysteine, pH 7, 0 hour
[11] = Ex 4-1, no cysteine, pH 7, 0.5 hours
[12] = Ex 4-1, no cysteine, pH 7, 1.0 hour
[13] = Ex 4-1, no cysteine, pH 7, 1.5 hours
[14] = Ex 4-1, no cysteine, pH 7, 2.0 hours
[15] = Ex 4-1, no cysteine, pH 7, 3.0 hours
[16] = Ex 4-1, no cysteine, pH 7, 4.0 hours
[17] = Ex 4-2, cysteine, pH 5, 0.5 hours
[18] = Ex 4-2, cysteine, pH 5, 1.0 hour
[19] = Ex 4-2, cysteine, pH 5, 1.5 hours
[20] = Ex 4-2, cysteine, pH 5, 2.0 hours
[21] = Ex 4-2, cysteine, pH 5, 3.0 hours
[22] = Ex 4-2, cysteine, pH 5, 4.0 hours
[23] = Ex 4-2, cysteine, pH 7, 0.5 hours
[24] = Ex 4-2, cysteine, pH 7, 1.0 hour
[25] = Ex 4-2, cysteine, pH 7, 1.5 hours
[26] = Ex 4-2, cysteine, pH 7, 2.0 hours
[27] = Ex 4-2, cysteine, pH 7, 3.0 hours
[28] = Ex 4-2, cysteine, pH 7, 4.0 hours
[29] = gamma counter, sacrificed at the 2nd hour

T1 sequence (A0A8I6GGN2 32-1037): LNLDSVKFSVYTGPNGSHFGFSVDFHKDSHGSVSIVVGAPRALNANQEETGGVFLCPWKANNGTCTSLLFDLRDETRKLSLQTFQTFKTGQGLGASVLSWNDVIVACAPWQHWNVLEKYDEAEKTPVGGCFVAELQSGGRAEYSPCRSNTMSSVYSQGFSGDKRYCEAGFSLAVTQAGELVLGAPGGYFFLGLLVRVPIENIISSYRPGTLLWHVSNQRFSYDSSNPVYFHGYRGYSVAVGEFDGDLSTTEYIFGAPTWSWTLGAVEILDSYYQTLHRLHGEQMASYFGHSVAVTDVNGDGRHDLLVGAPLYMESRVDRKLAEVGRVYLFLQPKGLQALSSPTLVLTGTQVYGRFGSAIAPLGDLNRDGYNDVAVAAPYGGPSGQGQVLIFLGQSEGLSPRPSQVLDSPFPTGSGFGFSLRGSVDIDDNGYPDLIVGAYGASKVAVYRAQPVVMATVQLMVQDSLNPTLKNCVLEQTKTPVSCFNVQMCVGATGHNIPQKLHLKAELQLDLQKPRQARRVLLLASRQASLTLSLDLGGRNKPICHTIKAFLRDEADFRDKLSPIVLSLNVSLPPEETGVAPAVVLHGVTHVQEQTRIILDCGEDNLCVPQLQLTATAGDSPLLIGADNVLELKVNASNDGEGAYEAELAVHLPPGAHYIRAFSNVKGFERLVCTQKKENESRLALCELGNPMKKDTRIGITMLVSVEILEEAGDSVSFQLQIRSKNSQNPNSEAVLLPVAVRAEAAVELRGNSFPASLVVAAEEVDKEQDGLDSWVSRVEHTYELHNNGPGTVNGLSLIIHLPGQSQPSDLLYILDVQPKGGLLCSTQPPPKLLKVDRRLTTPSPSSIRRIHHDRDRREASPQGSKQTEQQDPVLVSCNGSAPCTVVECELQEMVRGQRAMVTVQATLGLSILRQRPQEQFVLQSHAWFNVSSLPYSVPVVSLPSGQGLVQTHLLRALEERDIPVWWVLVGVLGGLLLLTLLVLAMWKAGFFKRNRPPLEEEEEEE
T1 sequence (Q8R2H2 26-787): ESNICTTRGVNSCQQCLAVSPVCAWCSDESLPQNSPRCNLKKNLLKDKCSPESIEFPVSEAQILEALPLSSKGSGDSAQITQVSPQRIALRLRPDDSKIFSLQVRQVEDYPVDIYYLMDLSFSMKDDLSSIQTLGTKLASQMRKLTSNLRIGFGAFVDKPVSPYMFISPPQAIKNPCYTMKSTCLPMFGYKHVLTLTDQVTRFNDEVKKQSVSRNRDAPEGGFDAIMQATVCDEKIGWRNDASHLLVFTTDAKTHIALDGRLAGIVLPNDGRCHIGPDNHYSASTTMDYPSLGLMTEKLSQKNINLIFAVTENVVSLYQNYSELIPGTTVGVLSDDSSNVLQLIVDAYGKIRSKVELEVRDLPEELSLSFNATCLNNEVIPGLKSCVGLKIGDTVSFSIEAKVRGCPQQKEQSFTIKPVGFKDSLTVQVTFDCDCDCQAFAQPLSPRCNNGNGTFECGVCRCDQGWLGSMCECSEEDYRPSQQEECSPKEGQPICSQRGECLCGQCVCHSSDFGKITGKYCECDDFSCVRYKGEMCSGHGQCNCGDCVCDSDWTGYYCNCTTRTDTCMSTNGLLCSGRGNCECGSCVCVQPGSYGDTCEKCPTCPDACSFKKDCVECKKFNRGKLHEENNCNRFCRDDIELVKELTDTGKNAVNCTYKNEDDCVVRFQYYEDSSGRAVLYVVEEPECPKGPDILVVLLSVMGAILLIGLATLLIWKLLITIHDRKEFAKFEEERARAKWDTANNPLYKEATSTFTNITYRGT

Purity [1, 3]: 82.93%
Eluent A [1, 3]: 100
Eluent B [1, 3]: 17.07
Purity [1, 4]: 72.53%
Eluent A [1, 4]: 95.67
Eluent B [1, 4]: 23.14
Purity [1, 5]: 73.13%
Eluent A [1, 5]: 97.07
Eluent B [1, 5]: 23.94
Purity [1, 6]: 71.23%
Eluent A [1, 6]: 94.54
Eluent B [1, 6]: 23.31
Purity [1, 7]: 60.81%
Eluent A [1, 7]: 93.25
Eluent B [1, 7]: 32.44
Purity [1, 8]: 60.99%
Eluent A [1, 8]: 80.67
Eluent B [1, 8]: 19.68
Purity [1, 9]: 57.11%
Eluent A [1, 9]: 82.64
Eluent B [1, 9]: 25.53
Purity [1, 10]: 82.93%
Eluent A [1, 10]: 100
Eluent B [1, 10]: 17.07
Purity [1, 11]: 65.63%
Eluent A [1, 11]: 90.76
Eluent B [1, 11]: 25.13
Purity [1, 12]: 60.37%
Eluent A [1, 12]: 85.38
Eluent B [1, 12]: 25.01
Purity [1, 13]: 58.73%
Eluent A [1, 13]: 95.97
Eluent B [1, 13]: 37.24
Purity [1, 14]: 54.3%
Eluent A [1, 14]: 96.17
Eluent B [1, 14]: 41.87
Purity [1, 15]: 54.12%
Eluent A [1, 15]: 94
Eluent B [1, 15]: 39.88
Purity [1, 16]: 40.17%
Eluent A [1, 16]: 85.5
Eluent B [1, 16]: 45.33
Purity ([1]; Ex 4-2, cysteine, pH 5, 0 hour): 82.93%
Eluent A ([1]; Ex 4-2, cysteine, pH 5, 0 hour): 100
Eluent B ([1]; Ex 4-2, cysteine, pH 5, 0 hour): 17.07
Purity [1, 17]: 92.37%
Eluent A [1, 17]: 100
Eluent B [1, 17]: 7.63
Purity [1, 18]: 76.25%
Eluent A [1, 18]: 89.07
Eluent B [1, 18]: 12.82
Purity [1, 19]: 87.74%
Eluent A [1, 19]: 100
Eluent B [1, 19]: 12.26
Purity [1, 20]: 38.64%
Eluent A [1, 20]: 57.3
Eluent B [1, 20]: 18.66
Purity [1, 21]: 77.6%
Eluent A [1, 21]: 97.4
Eluent B [1, 21]: 19.8
Purity [1, 22]: 76.51%
Eluent A [1, 22]: 98.31
Eluent B [1, 22]: 21.8
Purity ([1]; Ex 4-2, cysteine, pH 7, 0 hour): 90.38%
Eluent A ([1]; Ex 4-2, cysteine, pH 7, 0 hour): 100
Eluent B ([1]; Ex 4-2, cysteine, pH 7, 0 hour): 9.62
Purity [1, 23]: 92.28%
Eluent A [1, 23]: 98.65
Eluent B [1, 23]: 6.37
Purity [1, 24]: 85.19%
Eluent A [1, 24]: 98.4
Eluent B [1, 24]: 13.21
Purity [1, 25]: 91.63%
Eluent A [1, 25]: 97.22
Eluent B [1, 25]: 5.59
Purity [1, 26]: 89.39%
Eluent A [1, 26]: 95.62
Eluent B [1, 26]: 6.23
Purity [1, 27]: 90.09%
Eluent A [1, 27]: 100
Eluent B [1, 27]: 9.91
Purity [1, 28]: 96.79%
Eluent A [1, 28]: 100
Eluent B [1, 28]: 3.21
Purity ([1]; addition of cysteine, pH of 5 (Table 8)): ≥ 70%
Purity ([1]; addition of cysteine, pH of 7 (Table 8)): ≥ 90%
maximum purity ([1]; no cysteine, pH 5 and pH 7 (text to Table 7)): 82.93%
specific uptake in the disease model [2]: high specific uptake
target to non target ratio ([2]; gamma counter, 2nd hour): 2.7
counts per minute (CPM)/g value, left artery [2, 29]: 23.5 CPM/g
counts per minute (CPM)/g value, right artery [2, 29]: 63.9 CPM/g
Structure (SMILES): O=C(O)C[C@H](NC(=O)[C@@H]1CCCN(C(=O)CCC2CCNCC2)C1)c1cncc(OCCNC(=O)CN2CC(=O)[O][99Tc-]3([O]C(=O)C2)[O]C(=O)CN(CC(=O)NCCOc2cncc([C@H](CC(=O)O)NC(=O)[C@@H]4CCCN(C(=O)CCC5CCNCC5)C4)c2)CC(=O)[O]3)c1 [[Tc-99m]GP-105]
background radioactivity excretion ([2]; microSPECT until 4 hours): quick background radioactivity excretion effect
